# Assay results as given in paper PMC6462224 (Nature chemical biology, 2018).
# Target: T1, M2R(S110R)_delta_ICL3 (Homo sapiens, UniProt P08172, DEL233-359/S110R)
# T1 sequence (P08172 with tags, fused parts or gaps S110R/DEL233-359): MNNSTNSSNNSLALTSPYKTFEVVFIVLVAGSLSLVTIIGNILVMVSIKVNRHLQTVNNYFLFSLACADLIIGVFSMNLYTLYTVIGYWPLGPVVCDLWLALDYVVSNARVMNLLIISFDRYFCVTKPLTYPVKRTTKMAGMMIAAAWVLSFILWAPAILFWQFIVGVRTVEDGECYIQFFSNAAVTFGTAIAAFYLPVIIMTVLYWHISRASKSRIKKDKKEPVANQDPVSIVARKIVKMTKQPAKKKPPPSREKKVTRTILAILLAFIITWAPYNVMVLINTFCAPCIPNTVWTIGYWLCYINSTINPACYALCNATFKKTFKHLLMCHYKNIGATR
# Assay: Inhibition of [3H]NMS binding to M2R
# Conditions: S110R vs wild type, Fig. 2e
structure (smiles),measurement,value
C[N+](C)(C)CC#CCOC1=NOCC1 [Iperoxo],reduction of affinity in S110R mutant relative to the wild type,~1000 fold
